Assay results as given in patent US10190119B2, “Mitochondrial phosphate carrier targets for treating soft-tissue calcification” (THE BRIGHAM AND WOMEN'S HOSPITAL, INC., priority 2014, dated 2019).

Tested on: calcifying extracellular vesicles (EVs)
Experiment: Aggregation of calcifying extracellular vesicles in a particle counting device
Conditions: 100 μM NEM, vesicles from smooth muscle cells cultured in calcifying conditions, cell-free, 37° C., FIG. 5
Method: Calcification has been previously linked to aggregation of extracellular vesicles. Therefore, vesicles were collected from smooth muscle cells cultured in calcifying conditions and incubated in cell-free conditions at 37° C. within a particle counting device. […] Aggregation of calcifying vesicles was observed by a reduction in total particles counted from 8 h to 20 h of incubation, as shown in FIG. 5. […] Without wishing to be bound by theory, it is hypothesized that this reduction is due to the inhibition of phosphate carriers on the vesicles, which blocks phosphate transport into the vesicles, and in turn preventing mineral formation.

## CCN1C(=O)C=CC1=O [NEM, N-ethylmaleimide]
  reduction in total particles (vesicle counts) from 8 h to 20 h of incubation: mitigated the reduction in vesicle counts
